One series concerns the target Human Serum Albumin (Homo sapiens, UniProt P02768). The series is described as follows: Binding (%) of the paramagnetic complex to human serum proteins/albumin by centrifugal ultrafiltration. Also on record: purchased Nycomed Phama; host or cells: Seronorm Human, reconstituted (lyophilised) human serum. The series is classed as in vitro ADME. An excerpt:
Preferred albumin binding agents according to the invention include paramagnetic contrast agents having molecular weight lower than 5,000 Da, preferably lower that 3,000 Da and, more preferably, comprised from 800 to 3,000 Da, that further display an in-vivo non-covalent protein binding with the Human Serum Albumin (or HSA, or albumin, as herein used interchangeably) equal to or higher that 85%, preferably higher than 90% and, more preferably, higher than 95%, expressed in terms of % of the agent amount that is non-covalently bound to serum albumin, measured by centrifugal ultrafiltration (Centrifree®) from a 0.5 mM solution of the agent in Seronorm® incubated at 37° C., according to the procedure disclosed, for instance, in Invest.Radiol. 2006, 41: 279-291; Whitlam J B, Brown K F. Ultrafiltration in serum protein binding determinations. J.Pharm.Sci. 1981; 70:146-150, and in the Example 2 of the Experimental section.
The binding (%) has been determined by with the method of the centrifugal ultrafiltration as described in: Whitlam J B, Brown K F Ultrafiltration in serum protein binding determination. J. Pharm Sci. 1981; 70:146-150; Bowers W F, Fulton S, thompson J. Ultrafiltration vs equilibrium dialysis for determination of free fraction. […]
The albumin serum protein binding was analysed in a human serum solution (Seronorm Human, Nycomed Phama) where each complex was added at a concentration of Gd(III) ion of 0.5 mM. […] The percent of Gd(III)-complex bound (% B) was determined by equation: % B=[(Ct−Cf)/Ct]*100 where Ct is the total amount of Gd(III) in the incubated solution and Cf is the free Gd(III) complex found in the permeate solution. The average bound fraction was assessed from ultrafiltration experiments carried out in triplicate. […]
The above solution (0.300 mL) was added to 15 mL of reconstituted human serum. […] The protein free permeate solution (0.4 mL) was collected and Cf was measured by ICP-MS analysis. […]
From obtained Cf values the percent of bound Gd-complex was determined by application of the following equation % B=[(Ct−Cf)/Ct]*100 where Ct is 0.460 mM (S.D.: 0.015). […]

Series [1] concerns A431 human epidermoid carcinoma xenografts. As to the kind of experiment: Fluorescence microscopy of Cy5-CTX distribution in A431 xenografts after PTX or vehicle (Example 5). The series is classed as in vivo, NCR athymic nude mice. As for the experimental part: Cy5-CTX: The fluorescently labeled monoclonal Antibody (mAb) was prepared in house, by conjugating the monoclonal antibody (3.51 mg/mL in citrate-TEA buffer, obtained by buffer exchange from the commercial glycine solution of the mAb) with the commercially available fluorescent cyanine Cy5-NHS ester by using typical and well experienced procedures known in the art. Molar ratio dye/mAb in the conjugated product=2. Albumin-Fluoresceinisothiocyanate: (Albumin-FITC, by Sigma-Aldrich, 10 mg/mL solution). Optical Imaging Protocol […]
Forty-five histological images were acquired, corresponding to approximately 3 sections per tumor. Each image consisted in a stack of two channels corresponding to the fluorescence signal obtained from the dye Cyanine 5 (Cy5) and Fluorescein isothiocyanate (FITC).
The spatial distribution of the Cy5-CTX staining was analyzed calculating for each pixel its distance from the nearest vessel wall using FITC-Alb images (Distance Map FIG. 9 panel c). In the corresponding Cy5-CTX image, the Cy5-CTX signal was then expressed as a function of the pixel distance from the vessel wall (CTX decay curve). […]
Fluorescent CTX decay curves were measured for each tumor section acquired by fluorescence microscopy over distances ranging from 0 to about 700 μm from the nearest vessel wall. […]

“And” between values parts separate entries of the source, which are not always exact repeats. Identical values can stand only once.

Chain of Human Serum Albumin (P02768 25-609): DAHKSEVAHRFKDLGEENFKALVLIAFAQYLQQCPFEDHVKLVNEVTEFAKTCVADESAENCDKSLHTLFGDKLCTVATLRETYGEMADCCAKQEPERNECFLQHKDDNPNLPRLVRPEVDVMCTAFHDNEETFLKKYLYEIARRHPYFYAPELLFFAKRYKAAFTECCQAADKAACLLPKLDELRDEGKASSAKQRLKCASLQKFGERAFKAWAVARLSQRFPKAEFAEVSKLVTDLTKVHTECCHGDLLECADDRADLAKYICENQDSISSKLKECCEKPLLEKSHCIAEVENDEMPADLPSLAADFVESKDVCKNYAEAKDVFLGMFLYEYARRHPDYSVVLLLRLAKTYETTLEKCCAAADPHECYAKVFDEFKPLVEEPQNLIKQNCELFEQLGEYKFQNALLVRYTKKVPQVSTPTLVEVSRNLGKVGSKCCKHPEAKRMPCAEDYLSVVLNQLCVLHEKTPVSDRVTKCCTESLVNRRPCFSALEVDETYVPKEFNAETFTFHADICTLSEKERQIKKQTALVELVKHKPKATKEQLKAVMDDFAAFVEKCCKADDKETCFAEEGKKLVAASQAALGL

`C[C@H](CCC(=O)[O-])[C@H]1CC[C@H]2[C@@H]3CC[C@@H]4C[C@@H](NC(=O)CC[C@@H](C(=O)[O-])N(CCN(CC(=O)[O-])CC(=O)[O-])CCN(CC(=O)[O-])CC(=O)[O-])CC[C@]4(C)[C@H]3C[C@H](O)[C@]12C.[Gd+3].[Na+].[Na+].[Na+]` [B22956/1, Gadocoletic acid trisodium salt]: the “Average Gd(III), Cf (free Gd(III) complex in the permeate solution)” value at Human Serum Albumin (0.5 mM Gd(III) complex in Seronorm human serum, 10 min at 37° C., 30 KDa MWCO ultrafiltration, per permeate A, B, C, trisodium salt) is 0.016 mM and 0.011 mM and 0.012 mM. Also, the “% B, Average” value at Human Serum Albumin (0.5 mM complex in human serum, 37° C., average of triplicate) worked out at 97.19%. Further, the “% B (percent of Gd(III)-complex bound to serum proteins)” value on Human Serum Albumin (0.5 mM complex in human serum, 37° C., single ultrafiltrations, trisodium salt) was 96.52% and 97.65% and 97.39%.

Take `CC(=O)O[C@H]1C(=O)[C@@]2(C)[C@H]([C@H](OC(=O)c3ccccc3)[C@]3(O)C[C@H](OC(=O)[C@H](O)[C@@H](NC(=O)c4ccccc4)c4ccccc4)C(C)=C1C3(C)C)[C@]1(OC(C)=O)CO[C@@H]1C[C@@H]2O` [PTX, Paclitaxel]: the “Cy5-CTX fluorescence (fAUC), treated versus untreated tumors” value in series [1] (between 400 and about 700 μm from the nearest vessel wall) was “higher fluorescence”. The “Cy5-CTX fAUC, treated versus untreated tumors” value in series [1] (whole tested range from 0 to 700 μm) is recorded as “No differences”.
